The nature of experiment [1]: Inhibition of MERS CoV 3C-like protease using Dabcyl-KTSAVLQSGFRKME-Edans as substrate by fluorometric assay. On the set-up: species or system Middle East respiratory syndrome-related coronavirus.
The nature of experiment [2]: Inhibition of SARS CoV 3C-like protease using Dabcyl-KTSAVLQSGFRKME-Edans as substrate by fluorometric assay. The arrangement: species or system Severe acute respiratory syndrome-related coronavirus.
The nature of experiment [3]: Inhibition of SARS CoV 3C-like protease. The arrangement: species or system Severe acute respiratory syndrome-related coronavirus.
Experiment [4] can be described thus: Inhibition of SARS CoV HKU3984 His-tagged 3C-like protease using H2N-TSAVLQSGFRKW-COOH as substrate by HPLC method. The arrangement: species or system Severe acute respiratory syndrome-related coronavirus.
Experiment [5] is described as follows: Inhibition of SARS CoV His-tagged 3C-like protease expressed in Escherichia coli BL21 using Dabcyl-KTSAVLQ-SGFRKME-Edans as substrate by Lineweaver-Burk analysis. The arrangement: species or system Severe acute respiratory syndrome-related coronavirus.
Experiment [6] is described as follows: Competitive inhibition of SARS CoV 3C-like protease using fluorogenic substrate by Lineweaver-Burk plot analysis. On the set-up: species or system Severe acute respiratory syndrome-related coronavirus.
Experiment [7] is described as follows: Inhibition of SARS CoV papain-like protease using Arg-Leu-Arg-Gly-Gly-AMC as substrate by fluorescence method. The arrangement: species or system Severe acute respiratory syndrome-related coronavirus.
Experiment [8] can be described thus: Inhibition of SARS CoV 3C-like protease using 12-mer fluorogenic peptide Dabcyl-KNSTLQSGLRKE-Edans as substrate incubated for 60 mins by fluorometric assay. The arrangement: species or system Severe acute respiratory syndrome-related coronavirus.
Experiment [9] in a line: Inhibition of SARS CoV 3C-like protease using Abz-SVTLQSG-Tyr(NO2)R as substrate by fluorescence method. The arrangement: species or system Severe acute respiratory syndrome-related coronavirus.
Experiment [10] has as its system Severe acute respiratory syndrome-related coronavirus. The experiment is described as follows: Irreversible inhibition of SARS CoV 3C-like protease assessed as ratio of Kinact to Ki using Abz-Ser-Val-Thr-Leu-Gln-Ser-Gly-(NO2)Tyr-Arg as substrate by fluorescence method.
A short description of experiment [11]: Inhibition of SARS CoV 3C-like protease expressed in Escherichia coli GJ1158 using 2-aminobenzoyl-SVTLQSG-Tyr(NO2)-R as substrate by FRET assay. The arrangement: species or system Severe acute respiratory syndrome-related coronavirus.

A word on the IC50: it is the concentration that gives 50% inhibition. A lower IC50 goes with higher potency. `O=C[C@@H](C[C@H]1CCNC1=O)NC(=O)[C@@H](Cc1ccccc1)NC(=O)/C=C/c1ccc(Cl)cc1F`: the 50% inhibitory concentration (IC50) in experiment [1] is 4700 nM; in experiment [2] it was 200 nM. In [3], `O=C(/C=C/c1ccccc1)N[C@@H](Cc1ccccc1)C(=O)N[C@@H](C[C@@H]1CCNC1=O)C(=O)C(=O)NCc1ccccc1` returned an IC50 of 1950 nM. The same measure, in the same setting: to `O=C(/C=C/c1ccccc1)N[C@@H](CC1CCCCC1)C(=O)N[C@@H](C[C@@H]1CCNC1=O)C(=O)C(=O)NCc1ccccc1` belongs 710 nM. Compound `CC1=C(C(=O)OCCc2ccccc2)C(c2ccccc2[N+](=O)[O-])C2=C(CCCC2=O)N1` (configuration not stated) had an IC50 in [4] of 2500 nM. Broadly, the Ki is the dissociation constant of the complex between target and ligand, obtained from inhibition or displacement. A low value points to higher affinity. The compound `CC(C)[C@H](NC(=O)[C@H](C)NC(=O)OCc1ccccc1)C(=O)C[C@@H](Cc1ccccc1)[C@@H](O)[C@H](O)[C@H](Cc1ccccc1)NC(=O)[C@@H](NC(=O)[C@H](C)NC(=O)OCc1ccccc1)C(C)C` returned a Ki in [5] of 600 nM. For `CC(C)[C@H](NC(=O)[C@H](C)NC(=O)OCc1ccccc1)C(=O)C[C@@H](Cc1c[nH]c2ccccc12)[C@@H](O)[C@H](O)[C@H](Cc1c[nH]c2ccccc12)NC(=O)[C@@H](NC(=O)[C@H](C)NC(=O)OCc1ccccc1)C(C)C`, in experiment [6], affinity was put at a Ki of 73 nM.

`O=C(/C=C/CCc1ccc(O)c(O)c1)CCc1ccc(O)c(O)c1` [DEHYDROHIRSUTANONOL]: the IC50 came out at 4100 nM in experiment [7] and 36200 nM in [8]. In the case of `CC(=O)N[C@H](C(=O)N[C@H](C(=O)N[C@@H](CC(C)C)C(=O)N[C@@H](C[C@@H]1CCNC1=O)C(=O)CN1Cc2cccc([N+](=O)[O-])c2C(=O)N1)[C@@H](C)OCc1ccccc1)C(C)C`, inhibition in experiment [9] was half-maximal at 600 nM (IC50).

On to `CCOC(=O)C1OC1C(=O)N(CCC(N)=O)NC(=O)[C@H](Cc1ccccc1)NC(=O)[C@H](CC(C)C)NC(=O)OCc1ccccc1` (some centres not stated), for which the Ratio in [10] is 1900 M⁻¹ s⁻¹. Take `Cc1ccc2nc(-c3ccc(N)cc3)sc2c1S(=O)(=O)O`: the IC50 in experiment [11] was determined as 4300 nM.

Values taken from ChEMBL document CHEMBL4732232, “Protease targeted COVID-19 drug discovery: What we have learned from the past SARS-CoV inhibitors?” (Eur J Med Chem, 2021).
